We go through one compound from patent US20020198189A1, “New use” (priority 2000, published 2002).

For orientation: melting point means the temperature of the solid-liquid transition.

Each structure is given as a SMILES string.

As to `CCCC1c2nc[nH]c2CCN1C(=O)OCc1ccccc1.O=C(O)C(F)(F)F` (stereo not shown), the melting point is 166 to 167 °C.
